In patent US12522610B2 (priority 2018, dated 2026):
Converted amounts (≈) assume the structure as drawn. Like-named read-outs stand apart in the source and are kept apart here.

Legend:
[1] = salt forms; dissolution medium, 55° C. water bath, 60 rpm; Table 4
physchem = settings: 55 °C, aqueous with cosolvent or surfactant or cyclodextrin, thermodynamic from solid

Row | Compound | solubility [1] [µg/mL] | solubility (physchem) [µg/mL]
1 | Buprenorphine acetate-hydrochloride salt | 1716 | –
2 | COC12CC[C@@]3(C[C@@H]1[C@](C)(O)C(C)(C)C)C1Cc4ccc(O)c5c4[C@@]3(CCN1CC1CC1)[C@H]2O5 [Buprenorphine free base] | – | 1180 (≈ 2510 µM)
